Several values for one entry are separate records, joined by “and”; a condition that tells them apart may be missing. Identical values can stand only once.
What was measured:
[1] = system: GT1b/4a NS5B chimeric replicon; assay: HCV replicon assay, GT1b/4a NS5B chimeric replicon, transient transfection; assay type: cell-based, hepatitis C virus; details: Hepatitis C virus, Huh-7, 72 h, read-out: GT4a EC50, GT1b/4a NS5B chimeric replicon, Huh-7 cells, luciferase, 72 hours
Procedure: (§1) The antiviral activity of the test compounds was assessed in the wild type GT1b (Con1), GT1a (H77), and GT1b/2a, GT1b/3a, GT1b/4a and GT1b/5a NS5B chimeric replicons, as well as the NS5B mutant replicons listed in Table 2a and 2b.
(§2) To generate HCV NS5B chimeric replicons, the GT1 b replicon was used as a backbone with the NS5B gene replaced with the NS5B gene of GT2a, GT3a, GT4a and GT5a derived from clinical isolates. These NS5B genes were cloned into the GT1b backbone and were confirmed by sequencing.
(§3) All the replicon assays were luciferase based in Huh-7 cells, either in stable format (GT1b and GT1a) or by transient transfection by electroporation (chimeric and mutant replicons). For a standard HCV replicon assay, stable or transiently transfected Huh-7 cells were seeded in 96-well plates (5,000 cells/well), cultured in DMEM containing 10% FBS, and incubated at 37° C., 5% CO2. On the following day, test compounds were diluted with assay media and added to the appropriate wells (final DMSO concentration in the cell culture medium was 0.5%). Assay reference positive control was included in each run to ensure assay performance. Cells were incubated at 37° C., 5% CO2 for 72 hours, at which time the cells were still sub-confluent. The antiviral activity was determined by measuring replicon reporter firefly luciferase activity using Bright Glo kit in accordance with the protocol provided by the supplier (Promega). The toxicity of the test compounds was assessed by CytoTox-1 cell proliferation assay (Promega). The half maximal effective concentration (EC50) and the half maximal toxic concentration (TC50) values were calculated using the GraphPad Prism software.

[2] = system: GT1b C316N NS5B mutant replicon; assay: HCV NS5B mutant replicon assay, GT1b C316N; assay type: cell-based; details: Hepatitis C virus, Huh-7, 72 h, read-out: GT1b C316N EC50
Procedure: as §1
(§4) The HCV replicon mutants were generated by site-directed mutagenesis (SDM). The SDM was performed by PCR and the PCR fragments were inserted into the backbone replicon construct. The inserted PCR fragments and the mutants were confirmed by sequencing.
as §3

[3] = system: GT1a L159F NS5B mutant replicon; assay: HCV NS5B mutant replicon assay, GT1a L159F; assay type: cell-based; details: Hepatitis C virus, Huh-7, 72 h, read-out: GT1a L159F EC50
Procedure: as §1, §4, §3

[4] = system: GT1b/5a NS5B chimeric replicon; assay: HCV replicon assay, GT1b/5a NS5B chimeric replicon, transient transfection; assay type: cell-based, hepatitis C virus; details: Hepatitis C virus, Huh-7, 72 h, read-out: GT5a EC50, GT1b/5a NS5B chimeric replicon, Huh-7 cells, luciferase, 72 hours
Procedure: as §1, §2, §3

GT1a (H77) HCV replicon = assay: HCV replicon assay, wild type GT1a (H77), luciferase based, stable format; assay type: cell-based, hepatitis C virus; details: Hepatitis C virus, GT1A, Huh-7, 72 h, Huh-7 cells
Procedure: as §1, §3

[5] = system: GT1b/3a NS5B chimeric replicon; assay: HCV replicon assay, GT1b/3a NS5B chimeric replicon, transient transfection; assay type: cell-based, hepatitis C virus; details: read-out: GT3a EC50; GT1b/3a NS5B chimeric replicon, Huh-7 cells, luciferase, 72 hours
Procedure: as §1, §2, §3

GT1b (Con1) HCV replicon = assay: HCV replicon assay, wild type GT1b (Con1), luciferase based, stable format; assay type: cell-based, hepatitis C virus; details: Huh-7 cells, 72 hours
Procedure: as §1, §3

[6] = system: GT3a V321A NS5B mutant replicon; assay: HCV NS5B mutant replicon assay, GT3a V321A; assay type: cell-based; details: Hepatitis C virus, Huh-7, 72 h, read-out: GT3a V321A EC50
Procedure: as §1, §2, §4, §3

[7] = system: GT3a L159F NS5B mutant replicon; assay: HCV NS5B mutant replicon assay, GT3a L159F; assay type: cell-based; details: Hepatitis C virus, Huh-7, 72 h, read-out: GT3a L159F EC50
Procedure: as §1, §2, §4, §3

[8] = system: GT1b L159F NS5B mutant replicon; assay: HCV NS5B mutant replicon assay, GT1b L159F; assay type: cell-based; details: Hepatitis C virus, Huh-7, 72 h, read-out: GT1b L159F EC50
Procedure: as §1, §4, §3

[9] = system: GT3a S282T NS5B mutant replicon; assay: HCV NS5B mutant replicon assay, GT3a S282T; assay type: cell-based; details: Hepatitis C virus, Huh-7, 72 h, read-out: GT3a S282T EC50
Procedure: as §1, §2, §4, §3

[10] = system: GT1b S96T NS5B mutant replicon; assay: HCV NS5B mutant replicon assay, GT1b S96T; assay type: cell-based; details: Hepatitis C virus, Huh-7, 72 h, read-out: GT1b S96T EC50
Procedure: as §1, §4, §3

[11] = Nucleoside phosphoester stability in simulated intestinal fluid; assay type: in vitro ADME; details: simulated gi fluid, 2 μM, pH 6.8
Procedure: Test compounds at 2 μM were incubated at 37° C. with simulated intestinal fluid (SIF), which contains 0.68% (w/v) monobasic potassium phosphate and 1% (w/v) pancreatin in ultra-pure water (pH 6.8). Duplicate samples were used. Samples were removed at 0, 15, 30, 60, 120, 360 and 1440 min, immediately mixed with cold acetonitrile containing an internal standard (IS), and stored at −80° C. before analysis. Chlorambucil was used as a positive control. Samples were analyzed by a LC/MS/MS method, and disappearance of test compound was assessed by comparison of peak area ratios of analyte/IS and reported as % test compound remaining at each time point.

Huh-7 cells = assay: Toxicity by CytoTox-1 cell proliferation assay (TC50) and selectivity index; assay type: cell-based; details: TC50 by CytoTox-1 cell proliferation assay over replicon EC50, Huh-7 cells
Procedure: as §3

[12] = system: GT1b S282T NS5B mutant replicon; assay: HCV NS5B mutant replicon assay, GT1b S282T; assay type: cell-based; details: Hepatitis C virus, Huh-7, 72 h, read-out: GT1b S282T EC50
Procedure: as §1, §4, §3

[13] = Nucleoside phosphoester stability in simulated gastric fluid; assay type: in vitro ADME; details: simulated gastric fluid pH 1.2, 2 μM, 37° C.
Procedure: Test compounds at 2 μM were incubated at 37° C. with simulated gastric fluid (SGF, 0.2% (w/v) sodium chloride in 0.7% (v/v) hydrochloric acid, deionized water, 0.3% pepsin (w/v), pH 1.2). Duplicate samples were used. Samples were removed at 0, 15, 30, 60, 120, 360 and 1440 min, immediately mixed with cold acetonitrile containing internal standard (IS), and stored at −80° C. before analysis. Omeprazole was used as a positive control. Samples were analyzed by LC/MS/MS method, and disappearance of test compound was assessed by comparison of peak area ratios of analyte/IS and reported as % test compound remaining at each time point.

[14] = system: GT1b/2a NS5B chimeric replicon; assay: HCV replicon assay, GT1b/2a NS5B chimeric replicon, transient transfection; assay type: cell-based, hepatitis C virus; details: Hepatitis C virus, Huh-7, 72 h, read-out: GT2a EC50, GT1b/2a NS5B chimeric replicon, Huh-7 cells, luciferase, 72 hours
Procedure: as §1, §2, §3

[15] = system: GT1a S282T NS5B mutant replicon; assay: HCV NS5B mutant replicon assay, GT1a S282T; assay type: cell-based; details: Hepatitis C virus, Huh-7, 72 h, read-out: GT1a S282T EC50
Procedure: as §1, §4, §3

CC(C)(C)SSc1ccccc1CCOP1(=O)OC[C@H]2O[C@@H](n3ccc(N)nc3=O)[C@](C)(F)[C@@H]2O1 (single isomer, unassigned) [Compound 9A]
EC50 [1]: 3 nM | EC50 [2]: 4 nM | EC50 [3]: 10 nM | EC50 [4]: 2 nM | EC50 (GT1a (H77) HCV replicon): 3 to 6 nM | EC50 [5]: 6 nM and 4 to 6 nM | EC50 (GT1b (Con1) HCV replicon): 7 nM and 4 to 5 nM | EC50 [6]: 12 nM | EC50 [7]: 8 nM | EC50 [8]: 9 nM | EC50 [9]: 6 to 18 nM | EC50 [10]: 7 nM | % Remaining ([11]; 0 h): 100.00% | % Remaining ([11]; 0.25 h): 99.21% | % Remaining ([11]; 0.5 h): 103.81% | % Remaining ([11]; 1 h): 103.14% | % Remaining ([11]; 2 h): 109.48% | % Remaining ([11]; 6 h): 101.64% | % Remaining ([11]; 24 h): 98.27% | Selectivity Index (TC50/EC50) (Huh-7 cells): >500 | EC50 [12]: 23 to 25 nM | % Remaining ([13]; 0 min): 100.00% | % Remaining ([13]; 15 min): 107.89% | % Remaining ([13]; 30 min): 102.51% | % Remaining ([13]; 60 min): 97.63% | % Remaining ([13]; 120 min): 94.89% | % Remaining ([13]; 360 min): 91.06% | % Remaining ([13]; 1440 min): 76.22% | EC50 [14]: 3 nM | EC50 [15]: 6 to 35 nM

Reference: patent US20180346505A1, “MONONUCLEOTIDES HAVING A BIOREVERSIBLE DISULFIDE GROUP” (priority 2014, published 2018)
